Laboratory results: patent US8664243B2, “Sulfonamide compound and crystal thereof” (Asahi Kasei Pharma Corporation, priority 2007, dated 2014)

Assay: Hygroscopicity Test 2 (25° C. and 84% RH; free base, salts and salt mixtures)
Format: physicochemical
Settings: for Appearance / Water content / Purity: 25° C. and 84% RH, dark; for Purity: HPLC
Method: Hygroscopicity of Compound 1 or the substance in the form of a salt can be evaluated by putting a sample on a glass weighing dish, storing the dish in a dark place for a given period of time in an open state at a temperature of 25 to 40° C. under a humidification condition of about 75 to 94% relative humidity, and then observing or measuring appearance, purity, water content and the like of Compound 1 or the substance in the form of a salt. Increase of water content before and after storage especially serves as an important hygroscopic index. For example, the evaluation is preferably performed after storage conditions of 25° C. and 84% RH. • High performance liquid chromatography apparatus: LC-10A Series (Shimadzu) or Agilent 1100 series (Agilent Technologies) • Solution concentration: 500 μg/ml • Injection: 10 μl • Detector: Ultraviolet absorptiometer (measurement wavelength: 245 nm) • Column: XBridge Shield RP18 5 μm, internal diameter: 4.6 mm, length: 15 cm (Waters) • Column temperature: Constant temperature around 40° C. • Mobile phase A: 20 mmol/l Sodium phosphate buffer (pH 7.0) • Mobile phase B: Acetonitrile • Liquid feeding program: A concentration gradient was formed by changing the mixing ratio of the mobile phase A and the mobile phase B as shown in Table 1. • Flow rate: 1.0 ml/minute • Water content measurement apparatus: AQ-7 (Hiranuma Sangyo) • Sample amount: 5 mg • Anolyte: Aqualyte RS (Sigma-Aldrich) • Catholyte: Aqualyte CN (Sigma-Aldrich) Compound 1 obtained by a method similar to the method described in Example 1 (two kinds of lots), the monohydrochloride obtained by the method described in Example 3, the dihydrochloride, and mixtures of the monohydrochloride and the dihydrochloride at ratios of 9:1, 8:2, 6:4, 4:6 and 2:8 were weighed on a glass weighing dish in an amount of each 40 mg, and each sample was stored in a dark place at 25° C. and 84% RH for 2 to 4 weeks. After the storage, appearance was evaluated by visual inspection. Further, purity was measured under the conditions of Test Example 7, and water content was measured under the conditions of Test Example 8.

CN[C@H]1CCN(S(=O)(=O)c2cccc3cncc(Cl)c23)C1 [Compound 1, (S)-1-(4-chloro-5-isoquinolinesulfonyl)-3-(methylamino)pyrrolidine]
Appearance (after 2 weeks): Slightly
Water content (after 2 weeks, listed as Compound 1 (Lot 1)): 5.7%
Water content (after 2 weeks, listed as Compound 1 (Lot 2)): 7.6%
Appearance (after 4 weeks): Slightly
Water content (after 4 weeks, listed as Compound 1 (Lot 1)): 8.1%
Water content (after 4 weeks, listed as Compound 1 (Lot 2)): 9.1%
Appearance (before storage): Slightly
Water content (before storage, listed as Compound 1 (Lot 1)): 0.9%
Water content (before storage, listed as Compound 1 (Lot 2)): 1.7%
Purity (after 2 weeks): 99.9%
Purity (after 4 weeks): 99.9%
Purity (before storage): 99.9%
Moisture absorption (both lots, after storage at 25° C. and 84% RH for 4 weeks): further moisture absorption
